The values below come from ChEMBL document CHEMBL1139754, “Insect pest control agents: Novel chiral butanoate esters (juvenogens)” (Bioorg Med Chem, 2007).

Molecules are shown by their SMILES.

The test concerns Prorhinotermes. The test is described as follows: Juvenilizing activity against termite Prorhinotermes simplex at 0.5 mg m/L. In kind it is functional.
With `CCCC(=O)O[C@H]1CCCC[C@H]1Cc1ccc(OCCNC(=O)OCC)cc1`, the Activity was found to be 65%.
In the case of `CCCC(=O)O[C@@H]1CCCC[C@@H]1Cc1ccc(OCCNC(=O)OCC)cc1`, the Activity amounted to 65%.
Take `CCCC(=O)O[C@H]1CCCC[C@@H]1Cc1ccc(OCCNC(=O)OCC)cc1`: the Activity amounted to 65%.
For `CCCC(=O)O[C@@H]1CCCC[C@H]1Cc1ccc(OCCNC(=O)OCC)cc1`, the Activity was 65%.
